Assay results reported in patent US20040229816A1, “Anti-angiogenic and anti-tumoral properties of beta and gamma secretase inhibitors” (priority 2003, published 2004).
“Also recorded” adds a separate entry of the source.

Assays:
[1] = test system: human brain endothelial cells; experiment: viability of human brain endothelial cells (LDH activity in culture medium); assay type: cell-based; conditions: doses employed, 24 hours
Description: (§1) Primary cultures of human brain endothelial cells were plated at a density of 10^4 cells/[…] of EBM 4% in 96 wells culture plates and treated with various doses of γ-secretase and β-secretase inhibitors as indicated in the figure legends. Following 24 hours in culture, the EBM covering the cells was removed and assayed for Lacticodehydrogenase (LDH) activity using the cytotoxicity detection kit (Roche Diagnostic Corporation, Ind.). Cells were covered with […] of EBM 4% and cellular proliferation measured using the Quick cell proliferation assay kit (Biovision Research Products, Calif.).

[2] = test system: human brain endothelial cells; experiment: proliferation of human brain endothelial cells (Quick cell proliferation assay kit); assay type: cell-based; conditions: various doses, 24 hours
Description: as §1

[3] = test system: human lung adenocarcinoma (A-549) xenografts; experiment: human lung adenocarcinoma A-549 xenografts in nude mice; assay type: in vivo
Description: FIG. 9a: Anti-tumoral effect of the γ-secretase inhibitor DAPT and of the β-secretase inhibitor Z-VLL-CHO on human lung adenocarcinoma (A-549) xenografts growth rates. A-549 cells (8.5×10^6) were injected subcutaneously into both flanks of 8-10 weeks-old nude mice. Mice were injected intraperitoneally with either the vehicle, 5 mg/Kg of body weight of the β-secretase inhibitor Z-VLL-CHO or 10 mg/Kg of body weight of the γ-secretase inhibitor DAPT, starting when tumors had reached a mean tumor volume of approximately 200 mm^3 (day 21 post implantation). Injections were given everyday for 12 days. […] FIG. 9b: Representative pictures of sections of lung adenocarcinoma tumors immunostained with CD31 antibodies. FIG. 9c: Histogram depicting the quantification of the vascularization of lung adenocarcinoma tumors.
FIG. 10: Anti-tumoral effect of the γ-secretase inhibitor JLK-6 on human lung adenocarcinoma (A-549) xenografts growth rates. A-549 cells (8.5×10^6) were injected subcutaneously into both flanks of 8-10 weeks-old nude mice. Mice were injected intraperitoneally everyday from Day 16 (when the tumors reached a volume of approximately 150 mm^3) with either the vehicle or 5 mg/Kg of body weight of the γ-secretase inhibitor JLK-6.
The human glioblastoma U-87 MG and human lung adenocarcinoma A-549 cell lines were obtained from American Tissue Culture Type Collection (Manassas, Va.) and were grown in DMEM containing 1×penicilline-streptomycine-fungizone and 10% fetal bovine serum at 37° C. in a humidified atmosphere of 5% CO2. Tumor cells (6×106) in 100 μl of PBS were inoculated subcutaneously into both flanks of 8-10-week-old female nude mice (Harland). Tumor volume (in mm^3) was determined using the formula (length×width^2)/2, where length was the longest axis and width the measurement at right angles to the length (Clarke et al. 2000). When the tumor volumes reached approximately 150 mm^3, animals were treated intraperitoneally everyday with 100 μl of 50% DMSO/H2O (vehicle group), 5 mg/Kg of body weight of Z-VLL-CHO (β-secretase inhibitor), 5 mg/Kg of JLK-6 (γ-secretase inhibitor) or with 10 mg/Kg of body weight of DAPT. Data were expressed as mean tumor volume±S.E for each treatment group.
At the completion of the study, animals were humanely euthanized and tumors were harvested and fixed in paraformaldehyde 4% overnight at 4° C. After paraffin embedding in an automated tissue processing Sakura Tissue-Tek (E150) (Torrence, Calif.), samples were cut into 5 μm sections, deparafinized, and rehydrated through a graded series of alcohol. Sections were treated with 0.02 mg/ml Proteinase K (Gentra Systems, MN) for 15 minutes at 37° C. to allow for proper antigen retrieval, washed several times in PBS and incubated for 15 minutes in a 0.3% solution of hydrogen peroxide. Sections were blocked and then immunostained with a 1:40 dilution of a PECAM-1 antibody (BD-Pharmingen, CA) overnight at 4° C. in a humidification chamber. Vector ABC Kits (Vector Laboratories Inc, CA) where used following the manufacturer's instruction for the immunostaining. Quantification of tumor vascularization was performed using the stereological dissector method. Briefly, forty consecutive sections were taken from a randomly chosen starting point in each tumor. Five sections for each tumor were selected for stereology by taking one section every eight sections. A dissector counting frame was used with inclusion and exclusion lines throughout the reference area. Vessel count was performed at ×400 magnification with the use of an Olympus microscope connected to a digital video camera. Microvessels were counted in the dissector frame by an experimenter unaware of the different treatment conditions. For each tumor an average vessel count per area of dissector frame was determined. A vascular index was calculated by expressing the vessel count as a percentage of the vessel count in the vehicle treatment condition.

[4] = angiogenesis in vitro (test not specified); assay type: cell-based
Notch = conditions: cited from earlier work
presenilin 1 and 2 = conditions: cited from earlier work

Compound: COc1oc(=O)c2cc(N)ccc2c1Cl [JLK-6, 7-amino-4-chloro-3-methoxyisocoumarin]
- cellular toxicity / viability of human brain endothelial cells versus control [1]: without inducing cellular toxicity
- proliferation of human brain endothelial cells, dose dependence [2]: dose dependently inhibited
- vascularization of A-549 tumors ([3]; 5 mg/Kg intraperitoneally): inhibited
- growth (tumor volume) of A-549 xenografts versus vehicle ([3]; 5 mg/Kg intraperitoneally everyday from Day 16): inhibited; also recorded: significantly inhibits the growth; also recorded: inhibit the growth
- angiogenesis in vitro [4]: appears to reduce angiogenesis
- processing of Notch (Notch): does not affect
- proteolysis of presenilin 1 and 2 (presenilin 1 and 2): does not affect
